Measurements: PubChem BioAssay (NCI)
Where “and” joins values, the source holds several entries; their conditions need not be identical. Equal values may be shown once.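 These data come from cells grown in 96-well plates and exposed to compound for 48 hours at five concentrations. GI50 is the concentration that inhibits growth by half. TGI denotes the concentration required for complete inhibition of growth.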

What was measured:
Assay in all cases: DTP human tumour cell line panel, 48 h
ACHN renal = system: ACHN renal
EKVX NSCLC = system: EKVX NSCLC
HCT-116 colon = system: HCT-116 colon
MDA-MB-231 breast = system: MDA-MB-231 breast
MOLT-4 leukemia = system: MOLT-4 leukemia
OVCAR-3 ovarian = system: OVCAR-3 ovarian
RPMI-8226 leukemia = system: RPMI-8226 leukemia
SF-295 CNS = system: SF-295 CNS
SK-OV-3 ovarian = system: SK-OV-3 ovarian
SNB-19 CNS = system: SNB-19 CNS
UACC-257 melanoma = system: UACC-257 melanoma
UO-31 renal = system: UO-31 renal
A498 renal = system: A498 renal
CAKI-1 renal = system: CAKI-1 renal
HT29 colon = system: HT29 colon
NCI-H226 lung = system: NCI-H226 lung
T-47D breast = system: T-47D breast

Structure (SMILES)	TGI (ACHN renal)	TGI (EKVX NSCLC)	TGI (HCT-116 colon)	TGI (MDA-MB-231 breast)	TGI (MOLT-4 leukemia)	TGI (OVCAR-3 ovarian)	TGI (RPMI-8226 leukemia)	TGI (SF-295 CNS)	TGI (SK-OV-3 ovarian)	TGI (SNB-19 CNS)	TGI (UACC-257 melanoma)	TGI (UO-31 renal)	TGI (A498 renal)	TGI (CAKI-1 renal)	TGI (HT29 colon)	TGI (NCI-H226 lung)	TGI (T-47D breast)	GI50 (ACHN renal)	GI50 (EKVX NSCLC)	GI50 (OVCAR-3 ovarian)
CCc1n[nH]c(=O)n1/N=C/c1ccccc1O	> 100 µM	> 100 µM	> 100 µM	> 100 µM	> 100 µM	> 100 µM	> 100 µM	> 100 µM	> 100 µM	> 100 µM	> 100 µM	> 100 µM								
CC[C@H](C)[C@H]1NC(=O)[C@@H](NC(=O)[C@@H](CC(C)C)N(C)C(=O)C2CCCN2C(=O)[C@H](C)O)[C@@H](C)OC(=O)[C@H](Cc2ccc(OC)cc2)N(C)C(=O)[C@@H]2CCCN2C(=O)[C@H](CCCCNC(=O)OCc2ccccc2)NC(=O)[C@H](C)C(=O)[C@H](C(C)C)OC(=O)C[C@@H]1O (some centres not stated)	> 25 µM	> 25 µM	20.2 µM		> 25 µM	24.8 µM	19.7 µM	> 25 µM	> 25 µM	> 25 µM	> 25 µM	> 25 µM	> 25 µM	> 25 µM	16.4 µM	> 25 µM	> 25 µM			
COc1ccc(N=NC(=O)NC(Cc2ccccc2)C(=O)O)cc1 (configuration not stated)	> 100 µM	> 100 µM	> 100 µM		> 100 µM	> 100 µM	> 100 µM	> 100 µM		> 100 µM	> 100 µM	> 100 µM	> 100 µM	> 100 µM	> 100 µM	> 100 µM	> 100 µM			
O=[N+]([O-])c1cccc2nc3ccccc3c(NCCCn3ccnc3[N+](=O)[O-])c12			0.00198 µM and 0.0188 µM	0.0119 µM		0.0178 µM and 0.0633 µM	0.000419 µM	0.214 µM and 0.0415 µM	0.111 µM	0.0153 µM	0.0208 µM and 0.0207 µM	0.00595 µM and 0.038 µM		0.0816 µM and 0.188 µM	0.00124 µM	0.00362 µM and 0.0351 µM		33.4 µM	76.4 µM	0.0122 µM
CC(C)=CCC[C@]1(C)C=Cc2c(O)c3c(c(CC=C(C)C)c2O1)O[C@]12C(=C[C@@H]4CC1C(C)(C)O[C@@]2(C/C=C(/C)C(=O)O)C4=O)C3=O	1.37 µM	4.39 µM	1.5 µM	4.23 µM	1.8 µM	2.67 µM	1.61 µM	10 µM	8.54 µM	7.36 µM	6.8 µM	3.73 µM	3.98 µM	3.66 µM	1.85 µM	3.93 µM				
CC(=O)O[C@H]1C(=O)[C@@]2(C)[C@H]([C@H](OC(=O)c3cccc([N+](=O)[O-])c3)[C@]3(O)C[C@H](OC(=O)[C@H](O)[C@@H](NC(=O)c4ccccc4)c4ccccc4)C(C)=C1C3(C)C)[C@]1(OC(C)=O)CO[C@@H]1C[C@@H]2O	> 25 µM	> 25 µM	> 25 µM	> 25 µM	> 20.3 µM	0.0183 µM	18.1 µM	0.15 µM	> 25 µM	> 25 µM	> 25 µM	> 25 µM	18.5 µM	> 25 µM		> 25 µM				
CC(=O)Nc1ccc(NCC(=O)Nn2cnc3ccc(S(=O)(=O)Nc4ccc(NC(C)=O)cc4)cc3c2=O)cc1	> 100 µM	> 100 µM	> 100 µM	> 100 µM	> 100 µM	> 100 µM	> 100 µM	> 100 µM	> 100 µM	> 100 µM	> 100 µM	> 100 µM		> 100 µM	> 100 µM	> 100 µM				
CC(C)(O)/C=C\P(=O)(O)O	> 100 µM	> 100 µM	> 100 µM			> 100 µM		> 100 µM	> 100 µM	> 100 µM	> 100 µM			> 100 µM	> 100 µM	> 100 µM	> 100 µM			
C=CCn1c(-c2ccc([N+](=O)[O-])cc2)cs/c1=N\C(P(=O)(O)O)P(=O)(O)O	> 100 µM	> 100 µM	> 100 µM	> 100 µM	> 100 µM	> 100 µM	> 100 µM	> 100 µM	> 100 µM	> 100 µM	> 100 µM	> 100 µM	> 100 µM	> 100 µM	> 100 µM	> 100 µM				
Cc1ccn2c(=O)cc(CN3CCOCC3)nc2c1	> 100 µM	> 100 µM	> 100 µM	> 100 µM	> 100 µM	> 100 µM	> 100 µM	> 100 µM	> 100 µM	> 100 µM	> 100 µM	> 100 µM		> 100 µM	> 100 µM	> 100 µM				
COc1c(CC=C(C)C)c(O)c(C(CC(C)C)c2c(O)c3c(c(C(C)=O)c2O)OC(C(C)(C)O)C3)c(O)c1C(C)=O (configuration not stated)	> 12.5 µM	> 12.5 µM	> 12.5 µM		5.9 µM	> 12.5 µM	3.19 µM	> 12.5 µM	> 12.5 µM	> 12.5 µM	12.4 µM	> 12.5 µM	12.3 µM	> 12.5 µM	> 12.5 µM		9.21 µM			
